For data set [1], the system named is SMN2 minigene mRNA (SMN2-A minigene) in HEK293H cells. Briefly: SMN2 minigene mRNA splicing RT-qPCR assay in cultured cells. In kind it is cell-based, human. The following applies: Homo sapiens, HEK293-H; concentration increasing full length SMN2 mRNA 1.5-fold relative to vehicle-treated cells; HEK293H cells with SMN2-A minigene, 24 hours, 7-point concentration data; read-out: EC1.5x for production of full length SMN2 mRNA. A digest of the protocol: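 Cells are seeded, left to attach 4-6 h, then dosed with test compound across seven concentrations and incubated 24 h. Lysates undergo RT-qPCR with primers/probe specific to the exon 7-containing minigene transcript, co-amplified with GAPDH. Fold change over vehicle is calculated, and EC1.5× marks the 1.5-fold point.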
On the technique in general: Real-time PCR tracks product formation cycle by cycle.

For data set [2], the system named is Smn protein in SMA patient fibroblast cells (GM03813). In words: Smn protein assay in cultured cells (SMN HTRF). The following applies: SMA patient fibroblast cells, 48 hours; for EC1.5x for Smn protein expression: 7-point concentration curve, SMN HTRF, concentration producing 1.5 times Smn protein vs DMSO vehicle control; for maximum fold (Fold) increase of Smn protein: 7-point concentration data, fold relative to vehicle control. In kind it is cell-based, human. A digest of the protocol:
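Patient-derived SMA fibroblasts are plated, given compound for 48 h, then lysed in RIPA buffer with protease inhibitors. Lysate Smn is detected by an anti-SMN d2/kryptate HTRF pair incubated overnight. The normalized ΔF is divided by the vehicle ΔF to give fold change, from which EC1.5× and maximum fold are taken.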

The values that follow come from patent publication US11753407B2, “Compounds for treating spinal muscular atrophy” (PTC Therapeutics, Inc., priority 2012, dated 2023).

The melting point is the temperature of the solid-liquid transition.

Regarding `O=c1cc(-c2cccc([N+](=O)[O-])c2)nc2ccc(N3CCNCC3)cn12` [Compound 62, 2-(3-nitrophenyl)-7-(piperazin-1-yl)-4H-pyrido[1,2-a]pyrimidin-4-one], the melting point was 175 °C (dec.). The EC (1.5-fold increase) in data set [1] lay within 0.1 to 0.3 µM. For the same compound, in data set [2], the “EC1.5x for Smn protein expression” value is “*** (an EC1.5× between >0.3 μM and ≤1 μM is indicated by three stars (***))”; the “maximum fold (Fold) increase of Smn protein” value (from here on “maximum fold (Fold) increase”) is “***** (a fold increase >1.65 is indicated by five stars (*****))”.

Consider `Cc1ccc(-c2cc(=O)n3cc(N4CCNCC4)ccc3n2)cc1` [Compound 63, 2-(4-methylphenyl)-7-(piperazin-1-yl)-4H-pyrido[1,2-a]pyrimidin-4-one], for which the melting point lay within 192 to 195 °C. In addition, the EC (1.5-fold increase) in data set [1] was in the range of 1 to 3 µM. In data set [2], the “maximum fold (Fold) increase” value was “** (a fold increase between >1.2 and ≤1.35 is indicated by two stars (**))”.

For the compound `COc1cc(F)c(-c2cc(=O)n3cc(N4CCNCC4)ccc3n2)cc1OC` [Compound 64, 2-(2-fluoro-4,5-dimethoxyphenyl)-7-(piperazin-1-yl)-4H-pyrido[1,2-a]pyrimidin-4-one], the melting point fell in the range of 177 to 180 °C. Further, in data set [1], the EC (1.5-fold increase) fell in the range of 3 to 30 µM. Further, the “maximum fold (Fold) increase” value in data set [2] was “** (a fold increase between >1.2 and ≤1.35 is indicated by two stars (**))”.

With `COc1cc(F)c(-c2cc(=O)n3cc(N4CCN[C@@H](C)C4)ccc3n2)cc1OC` [Compound 65, 2-(2-fluoro-4,5-dimethoxyphenyl)-7-[(3S)-3-methylpiperazin-1-yl]-4H-pyrido[1,2-a]pyrimidin-4-one], the melting point lay in the range of 167 to 170 °C. In data set [1], the EC (1.5-fold increase) fell in the range of 3 to 30 µM. Also, the “maximum fold (Fold) increase” value in data set [2] is “** (a fold increase between >1.2 and ≤1.35 is indicated by two stars (**))”.

Regarding `COc1ccc(-c2cc(=O)n3cc(N4CC5CCC(C4)N5)ccc3n2)cc1OC` [Compound 66, 7-(3,8-diazabicyclo[3.2.1]oct-3-yl)-2-(3,4-dimethoxyphenyl)-4H-pyrido[1,2-a]pyrimidin-4-one], the melting point lay within 158 to 161 °C. The EC (1.5-fold increase) in data set [1] was 0.3 to 1 µM. In data set [2], the “EC1.5x for Smn protein expression” value is “* (An EC1.5× for Smn protein expression between >3 μM and ≤10 μM is indicated by one star (*))”; the “maximum fold (Fold) increase” value was “*** (a fold increase between >1.35 and ≤1.5 is indicated by three stars (***))”.

In turn, `COc1ccc(-c2cc(=O)n3cc(N4CCNCC4)ccc3n2)cc1C(F)(F)F` [Compound 67, 2-[4-methoxy-3-(trifluoromethyl)phenyl]-7-(piperazin-1-yl)-4H-pyrido[1,2-a]pyrimidin-4-one] showed a melting point of 177 to 181 °C. The EC (1.5-fold increase) in data set [1] lay in the range of 0.1 to 0.3 µM. Besides, in data set [2], the “EC1.5x for Smn protein expression” value is “*** (an EC1.5× between >0.3 μM and ≤1 μM is indicated by three stars (***))”; the “maximum fold (Fold) increase” value is “*** (a fold increase between >1.35 and ≤1.5 is indicated by three stars (***))”.

As for `COc1ccc(-c2cc(=O)n3cc(N4CCN[C@H](C)C4)ccc3n2)cc1C(F)(F)F` [Compound 68, 2-[4-methoxy-3-(trifluoromethyl)phenyl]-7-[(3R)-3-methylpiperazin-1-yl]-4H-pyrido[1,2-a]pyrimidin-4-one], the melting point lay within 205 to 212 °C. In addition, the EC (1.5-fold increase) in data set [1] lay within 0.1 to 0.3 µM. Moreover, the “maximum fold (Fold) increase” value in data set [2] was “** (a fold increase between >1.2 and ≤1.35 is indicated by two stars (**))”.

With `COc1ccc(-c2cc(=O)n3cc(N4CCN[C@@H](C)C4)ccc3n2)cc1C(F)(F)F` [Compound 69, 2-[4-methoxy-3-(trifluoromethyl)phenyl]-7-[(3S)-3-methylpiperazin-1-yl]-4H-pyrido[1,2-a]pyrimidin-4-one], the melting point lay within 195 to 200 °C. Moreover, the EC (1.5-fold increase) in data set [1] lay in the range of 0.3 to 1 µM. In data set [2], the “EC1.5x for Smn protein expression” value is “*** (an EC1.5× between >0.3 μM and ≤1 μM is indicated by three stars (***))”; the “maximum fold (Fold) increase” value is “**** (a fold increase between >1.5 and ≤1.65 is indicated by four stars (****))”.

As for `N#Cc1ccc(-c2cc(=O)n3cc(N4CCNCC4)ccc3n2)cc1` [Compound 73, 4-[4-oxo-7-(piperazin-1-yl)-4H-pyrido[1,2-a]pyrimidin-2-yl]benzonitrile], the melting point was 146 to 151 °C. Moreover, in data set [1], the EC (1.5-fold increase) was 3 to 30 µM. Besides, the “maximum fold (Fold) increase” value in data set [2] is “** (a fold increase between >1.2 and ≤1.35 is indicated by two stars (**))”.

In turn, `Cc1cn2cc(-c3cc(=O)n4cc(N5CCN[C@@H](C)C5)ccc4n3)nc2cn1` [Compound 75, 2-(6-methylimidazo[1,2-a]pyrazin-2-yl)-7-[(3S)-3-methylpiperazin-1-yl]-4H-pyrido[1,2-a]pyrimidin-4-one] displayed a melting point of 235 to 238 °C. Further, the EC (1.5-fold increase) in data set [1] was < 0.1 µM. Besides, in data set [2], the “EC1.5x for Smn protein expression” value is listed as “**** (an EC1.5x≤0.3 μM is indicated by four stars (****))” and the “maximum fold (Fold) increase” value is listed as “***** (a fold increase >1.65 is indicated by five stars (*****))”.

On to `O=c1cc(-c2ccc(F)c(C(F)(F)F)c2)nc2ccc(N3CCNCC3)cn12` [Compound 77, 2-[4-fluoro-3-(trifluoromethyl)phenyl]-7-(piperazin-1-yl)-4H-pyrido[1,2-a]pyrimidin-4-one], for which the melting point lay within 214 to 217 °C. Besides, in data set [1], the EC (1.5-fold increase) was in the range of 0.3 to 1 µM. For the same compound, the “maximum fold (Fold) increase” value in data set [2] was “** (a fold increase between >1.2 and ≤1.35 is indicated by two stars (**))”.

In turn, `COc1c(-c2cc(=O)n3cc(N4CCNCC4)ccc3n2)cccc1C(F)(F)F` [Compound 78, 2-[2-methoxy-3-(trifluoromethyl)phenyl]-7-(piperazin-1-yl)-4H-pyrido[1,2-a]pyrimidin-4-one] came in with a melting point of 194 to 200 °C. Moreover, the EC (1.5-fold increase) in data set [1] lay in the range of 1 to 3 µM. In addition, the “maximum fold (Fold) increase” value in data set [2] is “* (A maximum fold increase of ≤1.2 is indicated by one star (*))”.

`O=c1cc(-c2cc(F)cc(F)c2)nc2ccc(N3CCNCC3)cn12` [Compound 79, 2-(3,5-difluorophenyl)-7-(piperazin-1-yl)-4H-pyrido[1,2-a]pyrimidin-4-one] yielded a melting point of 195 to 198 °C. Also, the EC (1.5-fold increase) in data set [1] fell in the range of 0.1 to 0.3 µM. In addition, in data set [2], the “EC1.5x for Smn protein expression” value was “*** (an EC1.5× between >0.3 μM and ≤1 μM is indicated by three stars (***))”; the “maximum fold (Fold) increase” value was “**** (a fold increase between >1.5 and ≤1.65 is indicated by four stars (****))”.

Compound `O=c1cc(-c2cccc(OC(F)(F)F)c2)nc2ccc(N3CCNCC3)cn12` [Compound 80, 7-(piperazin-1-yl)-2-[3-(trifluoromethoxy)phenyl]-4H-pyrido[1,2-a]pyrimidin-4-one] came in with a melting point of 140 to 143 °C. For the same compound, the EC (1.5-fold increase) in data set [1] was in the range of 1 to 3 µM. Besides, the “maximum fold (Fold) increase” value in data set [2] is listed as “* (A maximum fold increase of ≤1.2 is indicated by one star (*))”.

Consider `COc1ccc(-c2cc(=O)n3cc(N4CCN[C@@H](C)C4)ccc3n2)cc1OC(F)(F)F` [Compound 83, 2-[4-methoxy-3-(trifluoromethoxy)phenyl]-7-[(3S)-3-methylpiperazin-1-yl]-4H-pyrido[1,2-a]pyrimidin-4-one], for which the melting point was 176 to 178 °C. The EC (1.5-fold increase) in data set [1] lay within 0.3 to 1 µM. The “maximum fold (Fold) increase” value in data set [2] is listed as “* (A maximum fold increase of ≤1.2 is indicated by one star (*))”.
